Article PMC9501525, “Conjugation of a Cationic Cell-Penetrating Peptide with a Novel Kunitzin-like Trypsin Inhibitor: New Insights for Enhancement of Peptide Bioactivities” (Pharmaceutics, 2022)
Peptide text beside a SMILES is read from it.

What was measured:
trypsin = molecular target: T1, trypsin (Bos taurus, UniProt P00760); assay: Trypsin inhibition determination (fluorogenic substrate, Morrison Ki); assay type: biochemical; conditions: Morrison equation; substrate Phe-Pro-Arg-AMC in PBS; Km = 67.38 μM, [S] = 42.86 μM, Et = 0.0020 μM; peptide 0.1–100 µM; nine replications in three experiments; N.I. = no inhibitory effect
T1 construct: gene PRSS1
T1 sequence (P00760 24-246): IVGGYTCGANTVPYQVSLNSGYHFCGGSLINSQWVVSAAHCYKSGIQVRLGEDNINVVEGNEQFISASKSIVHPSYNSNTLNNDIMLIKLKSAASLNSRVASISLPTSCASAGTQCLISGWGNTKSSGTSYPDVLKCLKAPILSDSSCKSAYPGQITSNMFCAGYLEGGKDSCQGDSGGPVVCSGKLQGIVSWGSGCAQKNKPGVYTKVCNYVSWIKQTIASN
Description: (§1) Phe-Pro-Arg-AMC (Bachem, Merseyside, UK) and succinyl-Ala-Ala-Pro-Phe-AMC (Bachem, Merseyside, UK) were used as substrates for trypsin and chymotrypsin inhibition determinations, respectively. Serial peptide dilutions (0.1–100 µM in phosphate buffered saline (PBS)) were incubated with 180 µL of substrate solution (50 µM in PBS) in a black 96-well plate under dark conditions for 10 min. Immediately prior to measurement, 10 µL of trypsin/chymotrypsin working solution (0.1 µM in PBS) was added to each well (final volume of 210 µL) in the plate. Subsequently, the fluorescence intensity was measured with the FLUO star OPTIMA plate reader (BMG Labtech, Ortenberg, Germany). The whole measurement process lasted for 30 min and was carried out at an emission wavelength of 460 nm and an excitation wavelength of 395 nm. The inhibition curves of trypsin and chymotrypsin were analyzed by non-linear regression using the Morrison equation in Prism 9 (Trypsin Km = 67.38 μM; Chymotrypsin Km = 17.15 μM; [S] = 42.86 μM; Et = 0.0020 μM).

chymotrypsin = chymotrypsin (Bos taurus, UniProt P00766); assay: Chymotrypsin inhibition determination (fluorogenic substrate, Morrison Ki); assay type: biochemical; conditions: Morrison equation; substrate succinyl-Ala-Ala-Pro-Phe-AMC in PBS; Km = 17.15 μM, [S] = 42.86 μM, Et = 0.0020 μM; peptide 0.1–100 µM; nine replications in three experiments; N.I. = no inhibitory effect
Description: as §1

S. aureus (ATCC 6538) = assay type: cell-based, Staphylococcus aureus; conditions: for MIC: MHB, 5 × 10^5 CFU/mL, overnight, absorbance 550 nm; for MBC: clear wells spotted onto MHA
Description: (§2) The antimicrobial efficacy screening of the purified peptides was performed by MIC/MBC experiments on the following six different bacteria and an opportunistic pathogenic yeast: E. coli (ATCC 8739), Klebsiella pneumoniae (K. pneumoniae) (ATCC 43816), Pseudomonas aeruginosa (P. aeruginosa) (ATCC 9027), Staphylococcus aureus (S. aureus) (ATCC 6538), methicillin-resistant Staphylococcus aureus (MRSA) (NCTC 12493), Enterococcus faecium (E. faecium) (NCTC 12697), and Candida albicans (C. albicans) (ATCC 10231). First, frozen beads of respective cultures were inoculated into Mueller Hinton broth (MHB) medium and incubated overnight at 37 °C. Next, 500 µL of respective suspensions were added to the fresh MHB medium for incubation, and then sub-cultured until reaching the log growth phase, which was determined by measuring the absorbance of cultures at a wavelength of 550 nm. Then, the subcultures were diluted to 5 × 10^5 CFU/mL and 99 µL of suspension was removed and mixed with 1 µL of peptide solution at different concentrations (double-dilution of 12,800 to 100 µM) in a 96-well plate. The blank control, vehicle control, growth control, and the positive control groups were prepared according to the conditions mentioned previously. The peptide solutions were added to the plate and mixed with the diluted microbial suspensions. After overnight incubation, the absorbance at 550 nm of each well was measured with a Synergy HT plate reader (Biotech, Minneapolis, MN, USA). Subsequently, the samples in each clear well were spotted onto Mueller Hinton agar (MHA) plates for the MBC assays of the tested peptides.

MRSA (NCTC 12493) = assay type: cell-based, methicillin-resistant Staphylococcus aureus; conditions: for MIC: MHB, 5 × 10^5 CFU/mL, overnight; for MBC: clear wells spotted onto MHA
Description: as §2

E. coli (ATCC 8739) = assay type: cell-based, Escherichia coli; conditions: for MIC: MHB, 5 × 10^5 CFU/mL, overnight; for MBC: clear wells spotted onto MHA
Description: as §2

[1] = system: P. aeruginosa (ATCC 9027); assay type: cell-based, Pseudomonas aeruginosa; conditions: for MIC: MHB, 5 × 10^5 CFU/mL, overnight; for MBC: clear wells spotted onto MHA
Description: as §2

C. albicans (ATCC 10231) = assay type: cell-based, Candida albicans; conditions: for MIC: MHB, 5 × 10^5 CFU/mL, overnight; for MBC: clear wells spotted onto MHA
Description: as §2

E. coli = assay: Salt sensitivity assay (MIC in the presence of salts); assay type: cell-based, Escherichia coli; conditions: for MIC in the presence of NH4Cl: MHB + 6 μM NH4Cl; for MIC in the presence of NH4Cl / MIC in the presence of KCl / MIC in the presence of NaCl / MIC in the presence of PBS: 18–20 h; for MIC in the presence of MgCl2: MHB + 1 mM MgCl2, 18–20 h; for MIC in the presence of CaCl2: MHB + 2.5 mM CaCl2, 18–20 h; for MIC in the presence of FeCl3: MHB + 4 mM FeCl3, 18–20 h; for MIC in the presence of KCl: MHB + 4.5 mM KCl; for MIC in the presence of ZnCl2: MHB + 8 mM ZnCl2, 18–20 h; for MIC in the presence of NaCl: MHB + 150 mM NaCl; for MIC in the presence of PBS: MHB, PBS (no added salt), 37 °C
Description: To determine the salt sensitivity of peptides, E. coli was used to detect the changes in MIC values of peptides under different salt conditions. The bacterial culture method used was similar to the MIC experimental method described earlier. Different concentrations of salts (150 mM NaCl, 4.5 mM KCl, 6 μM NH4Cl, 1 mM MgCl2, 1 mM MgCl2, 8 mM ZnCl2, 2.5 mM CaCl2, 4 mM FeCl3) were added to the MHB to examine the effects of each salt on the anti-E. coli activities of the peptides, as described in a previous study. Then, the bacterial dilution with salt was mixed well with peptides of different concentrations, similar to the MIC/MBC experiments, and cultured at 37 °C. After 18–20 h of incubation, the absorbance of each well was measured at 550 nm using the Synergy HT plate reader.

horse erythrocytes = assay: Haemolysis activity assay; assay type: cell-based; conditions: 2% horse erythrocytes in PBS, 37 °C, 2 h
Description: Horse erythrocytes (TCS Biosciences Ltd., Buckingham, UK) were washed completely with PBS and resuspended to obtain a 2% horse erythrocyte suspension. Then, the peptide solutions at different concentrations were gently mixed with the same volume of horse red blood cell suspension and the mixture of peptide and horse erythrocytes was placed into a humidified incubator at 37 °C for 2 h. After incubation, the mixture of all experimental groups was centrifuged at 900× g for 10 min and the supernatants obtained were transferred to a blank 96-well plate. The absorbance of each well was measured at 550 nm using the Synergy HT plate reader.

[2] = peptide 128 µM (maximum test concentration), vs 0.1% Triton X-100

| SMILES | Ki (trypsin) | MIC (S. aureus (ATCC 6538)) | MBC (S. aureus (ATCC 6538)) | MIC (MRSA (NCTC 12493)) | MBC (MRSA (NCTC 12493)) | MIC (E. coli (ATCC 8739)) | MBC (E. coli (ATCC 8739)) | MIC [1] | MBC [1] | MIC (C. albicans (ATCC 10231)) | MBC (C. albicans (ATCC 10231)) | MIC in the presence of NH4Cl (E. coli) | MIC in the presence of MgCl2 (E. coli) | MIC in the presence of CaCl2 (E. coli) | MIC in the presence of FeCl3 (E. coli) | MIC in the presence of KCl (E. coli) | MIC in the presence of ZnCl2 (E. coli) | MIC in the presence of NaCl (E. coli) | MIC in the presence of PBS (E. coli) | Haemolytic activity (horse erythrocytes; [2]) | further results |
| --- | --- | --- | --- | --- | --- | --- | --- | --- | --- | --- | --- | --- | --- | --- | --- | --- | --- | --- | --- | --- | --- |
| CC(C)C[C@H](NC(=O)[C@H](CCCCN)NC(=O)[C@H](C)NC(=O)[C@H](C)NC(=O)CNC(=O)CNC(=O)[C@H](CCCNC(=N)N)NC(=O)[C@H](CCCNC(=N)N)NC(=O)[C@H](CCCNC(=N)N)NC(=O)[C@H](CCC(N)=O)NC(=O)[C@H](CCCNC(=N)N)NC(=O)[C@H](CCCNC(=N)N)NC(=O)[C@H](CCCCN)NC(=O)[C@H](CCCCN)NC(=O)[C@@H](N)CCCNC(=N)N)C(=O)N1CCC[C@H]1C(=O)N[C@@H](Cc1ccccc1)C(=O)N[C@@H](CCCNC(=N)N)C(=O)N[C@H]1CSSC[C@@H](C(=O)O)NC(=O)[C@H](Cc2ccccc2)NC(=O)[C@H](C)NC(=O)[C@H](C)NC(=O)[C@H](CCCCN)NC1=O [TAT-KOV2] (HELM PEPTIDE1{R.K.K.R.R.Q.R.R.R.G.G.A.A.K.L.P.F.R.C.K.A.A.F.C}$PEPTIDE1,PEPTIDE1,19:R3-24:R3$$$V2.0) | 10.1 µM | 32 µM | 64 µM | >128 µM | >128 µM | 4 µM | 4/4 µM | >128 µM | >128 µM | >128 µM | >128 µM | 4 µM | 8 µM | 16 µM | 4 µM | 4 µM | 4 µM | 4 µM | 4 µM | 10% | Chymotrypsin Ki (chymotrypsin): N.I. |
| CC(C)C[C@H](NC(=O)[C@H](CCCCN)NC(=O)[C@H](C)NC(=O)[C@H](C)N)C(=O)N1CCC[C@H]1C(=O)N[C@@H](Cc1ccccc1)C(=O)N[C@@H](CCCNC(=N)N)C(=O)N[C@H]1CSSC[C@@H](C(=O)O)NC(=O)[C@H](Cc2ccccc2)NC(=O)[C@H](C)NC(=O)[C@H](C)NC(=O)[C@H](Cc2ccccc2)NC1=O [F9-KOV2] (HELM PEPTIDE1{A.A.K.L.P.F.R.C.F.A.A.F.C}$PEPTIDE1,PEPTIDE1,8:R3-13:R3$$$V2.0) | – | >128 µM | >128 µM | >128 µM | >128 µM | >128 µM | >128 µM | >128 µM | >128 µM | >128 µM | >128 µM | >128 µM | >128 µM | >128 µM | >128 µM | >128 µM | >128 µM | >128 µM | >128 µM | less than 10% | Trypsin Ki (trypsin): N.I.; Ki (chymotrypsin): 2.19 µM |
| CC(C)C[C@H](NC(=O)[C@H](CCCCN)NC(=O)[C@H](C)NC(=O)[C@H](C)NC(=O)CNC(=O)CNC(=O)[C@H](CCCNC(=N)N)NC(=O)[C@H](CCCNC(=N)N)NC(=O)[C@H](CCCNC(=N)N)NC(=O)[C@H](CCC(N)=O)NC(=O)[C@H](CCCNC(=N)N)NC(=O)[C@H](CCCNC(=N)N)NC(=O)[C@H](CCCCN)NC(=O)[C@H](CCCCN)NC(=O)[C@@H](N)CCCNC(=N)N)C(=O)N1CCC[C@H]1C(=O)N[C@@H](Cc1ccccc1)C(=O)N[C@@H](CCCNC(=N)N)C(=O)N[C@H]1CSSC[C@@H](C(=O)O)NC(=O)[C@H](Cc2ccccc2)NC(=O)[C@H](C)NC(=O)[C@H](C)NC(=O)[C@H](Cc2ccccc2)NC1=O [TAT-F9-KOV2] (HELM PEPTIDE1{R.K.K.R.R.Q.R.R.R.G.G.A.A.K.L.P.F.R.C.F.A.A.F.C}$PEPTIDE1,PEPTIDE1,19:R3-24:R3$$$V2.0) | – | 64 µM | 128 µM | >128 µM | >128 µM | 8 µM | 8/8 µM | >128 µM | >128 µM | >128 µM | >128 µM | 8 µM | 16 µM | 32 µM | 8 µM | 8 µM | 8 µM | 8 µM | 8 µM | about 25% | Trypsin Ki (trypsin): N.I.; Ki (chymotrypsin): 2.23 µM; Haemolytic activity (horse erythrocytes; peptide 32 µM): 10% |
| CC(C)C[C@H](NC(=O)[C@H](CCCCN)NC(=O)[C@H](C)NC(=O)[C@H](C)N)C(=O)N1CCC[C@H]1C(=O)N[C@@H](Cc1ccccc1)C(=O)N[C@@H](CCCNC(=N)N)C(=O)N[C@H]1CSSC[C@@H](C(=O)O)NC(=O)[C@H](Cc2ccccc2)NC(=O)[C@H](C)NC(=O)[C@H](C)NC(=O)[C@H](CCCCN)NC1=O [Kunitzin-OV2] (HELM PEPTIDE1{A.A.K.L.P.F.R.C.K.A.A.F.C}$PEPTIDE1,PEPTIDE1,8:R3-13:R3$$$V2.0) | 9.82 µM | >128 µM | >128 µM | >128 µM | >128 µM | 128 µM | 128/128 µM | >128 µM | >128 µM | >128 µM | >128 µM | >128 µM | >128 µM | >128 µM | >128 µM | >128 µM | >128 µM | >128 µM | 128 µM | less than 10% | Chymotrypsin Ki (chymotrypsin): N.I. |
